Several values for one entry are separate records, joined by “and”; a condition that tells them apart may be missing. Equal values may be shown once.
How the values were obtained:
[1] = test system: MC38 colorectal cancer syngeneic model; test: Experiment 2B: triple combination of Avelumab, Carboplatin and ATRi 1 in subcutaneous MC38 model; type: in vivo, C57BL/6 mice; settings: Exp. 2B; for Tumor-free mice on day 66: 10 mice per group; for Median survival: Kaplan-Meier, survival data up to day 66, euthanized at tumor burden of 3,000 mm^3; for TGI % (%) / T/C (%) / anti-tumor activity: day 17; for T/C (%): treated vs control group mean volume; for anti-tumor activity: in words; for Tumor Size (mm^3) at day 17: day 17 after start of treatment, Mean ± SEM, Avelumab 400 μg i.v. days 3, 6, 9, Carboplatin 60 mg/kg i.p., ATRi 1 60 mg/kg p.o. days 0, 7
Method: The MC38 tumor cells were maintained in vitro as a monolayer culture in DMEM+2 mM glutamine supplemented with 10% heat inactivated fetal bovine serum, 100 U/ml penicillin and 100 μg/ml streptomycin at 37° C. in an atmosphere of 5% CO2 in air. The tumor cells were routinely subcultured twice weekly by trypsin-EDTA treatment. The cells growing in an exponential growth phase were harvested and counted for tumor inoculation.
Each mouse was inoculated subcutaneously at the right upper flank with MC38 cells (3×10^5) in 0.1 mL of PBS for tumor development. Treatments were started on day 7 after tumor inoculation when the average tumor size reached approximately 80 mm^3. The animals were assigned into groups using an Excel-based randomization software performing stratified randomization based upon their tumor volumes. Each group consisted of 10 tumor-bearing mice. The tested compounds were administered to the mice according to the predetermined regimen shown in the experimental design Table 2 and Table 6, respectively.
(§1) The major endpoint was to see if the tumor growth could be delayed or mice could be cured. Tumor size was measured twice weekly in two dimensions using a caliper, and the volume was expressed in mm^3 using the formula: V=0.5 a×b^2 where a and b are the long and short diameters of the tumor, respectively. The tumor size was then used for calculation of T/C values. The T/C value (in percent) is an indication of antitumor effectiveness; T and C are the mean volumes of the treated and control groups, respectively, on a given day. TGI was calculated for each group using the formula: TGI (%)=[1−(Ti−T0)/(Vi−V0)]×100; Ti is the average tumor volume of a treatment group on a given day, TO is the average tumor volume of the treatment group on the day of treatment start, Vi is the average tumor volume of the vehicle control group on the same day with Ti, and V0 is the average tumor volume of the vehicle group on the day of treatment start. Animals were euthanized as they reached tumor burden of 3,000 mm^3 per IACUC regulations and the time to reach this endpoint was used for Kaplan-Meier survival analysis.
A one-way ANOVA was performed, and when a significant F-statistics (a ratio of treatment variance to the error variance) was obtained, comparisons between groups were carried out with Games-Howell test. All data were analyzed using SPSS 17.0. p<0.05 was considered to be statistically significant.
(§2) Statistical analysis of difference in survival rate among the groups were conducted on the survival data up to day 66 after the start of treatment. Kaplan-Meier test was performed, all data were analyzed using GraphPad Prism 6.0., comparisons between groups were carried out with Log-rank test, p<0.05 was considered to be statistically significant.
The anti-tumor efficacy of the triple combination avelumab, carboplatin and ATRi 1 was tested according to the above methods and with the experimental design outlined in Table 6.

[2] = test system: MC38 colorectal cancer syngeneic model; test: Experiment 2A: triple combination of Avelumab, Cisplatin and ATRi 1 in subcutaneous MC38 model; type: in vivo, C57BL/6 mice; settings: Exp. 2A; for Tumor-free mice on day 66: 10 mice per group; for Median survival: Kaplan-Meier, survival data up to day 66, euthanized at tumor burden of 3,000 mm^3; for TGI % (%) / T/C (%) / anti-tumor activity: day 17; for T/C (%): treated vs control group mean volume; for anti-tumor activity: in words
From the text: The objective of this study was to evaluate the in vivo anti-tumor efficacy of a triple combination treatment comprising avelumab, a platinating agent (cisplatin or carboplatin) and ATRi 1 (Compound 1) in the subcutaneous MC38 colorectal cancer syngeneic model in C57BL/6 mice.
The tumor cells were routinely subcultured twice weekly by trypsin-EDTA treatment.
Treatments were started on day 7 after tumor inoculation when the average tumor size reached approximately 80 mm^3. […] Each group consisted of 10 tumor-bearing mice.
as §1
Statistical analysis of difference in the tumor volume among the groups were conducted on the data obtained at the best therapeutic time point on day 17 after the start of treatment). A one-way ANOVA was performed, and when a significant F-statistics (a ratio of treatment variance to the error variance) was obtained, comparisons between groups were carried out with Games-Howell test. All data were analyzed using SPSS 17.0. p<0.05 was considered to be statistically significant.
as §2
The anti-tumor efficacy of the triple combination avelumab, cisplatin and ATRi 1 was tested according to the above methods and with the experimental design outlined in Table 2.

[3] = test system: MB49 syngeneic tumor model; test: Triple combination treatment in murine subcutaneous MB49 tumor model; type: in vivo, C57BL/6 female mice; settings: for Median survival: Kaplan-Meier, sacrificed when tumor volume reached 2000 mm^3; for Tumor Size (mm^3) at day 18: day 18, Mean ± SEM, Avelumab 400 μg i.v. days 3, 6, 9, Carboplatin 60 mg/kg i.p., ATRi 1 60 mg/kg p.o. days 0, 7; for TGI % (%): day 18 after start of treatment, vs control group; for tumor growth inhibition effect: in words, compared to the control group
Method: C57BL/6 female mice at 8-9 weeks of age where subcutaneously injected into the right flank with 0.5×10^6 of viable MB49 tumor cells in 0.1 mL PBS. The animals were randomized and therapy initiated when the tumors reached a volume of around 100 mm^3 (day 0 of treatment). Each group consisted of 10 tumor-bearing mice. The tested compounds were administered to the mice according to the predetermined regimen shown in the experimental design Table 14:
The tumor size was then used for calculation of T/C values.
The body weight was also measured twice a week. Mice were sacrificed when the tumor volume reached 2000 mm^3.
One-way analysis of variance (ANOVA) with Bonferroni's Multiple Comparisons Test, two-way ANOVA, unpaired t-test and Log-rank test from the GraphPad Prism software package were used (Prism 5 for Windows, Version 5.0, GraphPad Software Inc., San Diego, CA). p<0.05 was considered to be statistically significant.

[4] = 10 mg/kg dose; cited from earlier work

Compound	Tumor-free mice on day 66 [1]	Median survival [1] [days]	TGI % (%) [1] [%]	T/C (%) [1] [%]	anti-tumor activity [1]	Tumor-free mice on day 66 [2]	Median survival [2] [days]	TGI % (%) [2] [%]	T/C (%) [2] [%]	anti-tumor activity [2]	Median survival [3] [days]	Tumor Size (mm^3) at day 18 [3] [mm^3]	TGI % (%) [3] [%]	tumor growth inhibition effect [3]	Tumor Size (mm^3) at day 17 [1]	receptor occupancy [4]	tolerability [4]
CNCc1ccc(-c2cc(-c3nc(-c4ccc(S(=O)(=O)C(C)C)cc4)cnc3N)on2)cc1 [ATRi 1, 3-[3-(4-Methylaminomethyl-phenyl)-isoxazol-5-yl]-5-[4-(propane-2-sulfonyl)-phenyl]-pyrazin-2-ylamine]	0/10	21	−31.2	129.5	minor anti-tumor activity	0/10	24	11.6	88.9	minor anti-tumor activity	21	2087 ± 333	7.8	did not show any significant tumor growth inhibition effect	–	–	–
N.N.O=C([O-])C1(C(=O)[O-])CCC1.[Pt+2] [Carboplatin, reference compound]	0/10	28	55.5	47.6	minor anti-tumor activity	–	–	–	–	–	21	1814 ± 212	19.9	did not show any significant tumor growth inhibition effect	671 mm^3 and 671 ± 160 mm^3	–	–
N.N.[Cl][Pt][Cl] [Cisplatin, reference compound]	–	–	–	–	–	0/10	28	38.7	63.1	minor anti-tumor activity	–	–	–	–	–	–	–
Avelumab: fully human monoclonal antibody of the immunoglobulin (Ig) G1 isotype; selectively binds to PD-L1	0/10	31	47.8	54.9	minor anti-tumor activity	0/10	26	41.8	60.2	minor anti-tumor activity	22.5	1378 ± 175	39.1	moderate tumor growth inhibition effect	774 mm^3 and 774 ± 153 mm^3	excellent	well tolerated
